activity, EC200 and EC300 data for four compounds are collected here from patent US11981660B2, “Neurite outgrowth promoters and uses thereof” (UNIVERSITY OF MIAMI, priority 2018, dated 2024).

Each structure is given as a SMILES string.

The assay has as its system hippocampal neurons. The assay is described as follows: Neurite outgrowth assay in cultured E18 rat hippocampal neurons (48 h, βIII-tubulin staining, Cellomics ArrayScan). The assay is classed as cell-based. Particulars: Hippocampal neuron; for activity at 0.015625 µg/mL: 15.625 ng/mL compound; for activity at 0.015625 µg/mL / activity at 0.03125 µg/mL / activity at 0.0625 µg/mL / activity at 0.125 µg/mL / activity at 0.25 µg/mL / activity at 0.5 µg/mL: 48 hours, read-out: neurite growth length (% NTL); for activity at 0.03125 µg/mL: 31.25 ng/mL compound; for activity at 0.0625 µg/mL: 62.5 ng/mL compound; for activity at 0.125 µg/mL: 125 ng/mL compound; for activity at 0.25 µg/mL: 250 ng/mL compound; for activity at 0.5 µg/mL: 500 ng/mL compound; for EC200 / EC300: 48 h, estimated using linear interpolation; for EC200: 200% effective dose, read-out: ED200%; for EC300: 300% effective dose, read-out: ED300%. As to the method: Pre-coating culture plates: On the day before the experiment, 96-well plates were pre-coated by plating 50 μL of poly-D-lysine solution (PDL, 0.5 mg/mL) in each well. The next morning, the plates were washed four or five times with HBSS or PBS (150 μL/rinse), then left in buffer until cell plating
Preparing the cells: A timed pregnant rat carrying E18 embryos was euthanized using an IACUC approved method. In a laminar flow hood, the embryos were removed and placed in a petri dish containing Hank's Balanced Salt Solution (HBSS) with 20 mM HEPES, pH 7.3. Pup brains were dissected (see Meberg et al., Methods cell Biol 71:111-127 (2003)) and hippocampi were collected in 15 mL a conical tube containing Hibernate E with SM1 (2% v/v).
Dissociation media was prepared by combining 4.5 mL of Hibernate E (without SM1) with 0.5 mL of trypsin and 100 μl of DNAse solution. The medium over the hippocampi was carefully removed and replaced with dissociation solution, then incubated at 37° C. for 15-20 minutes, occasionally swirling the tube.
Using flame polished cotton plugged Pasteur pipettes, the dissociation media was removed, and then 5 mL of Hibernate E containing SM1 were added. The tube was swirled to thoroughly wash the tissue. The tissue was allowed to settle to the bottom of the tube, and the rinse solution was carefully removed. This step was repeated 5 times to dilute out trypsin and DNAse and remove any debris from lysed cells.
The final rinse media was removed from the tube and 1 pipette-full (1-2 mL) of Hibernate E with SM1 was added. Using the flame-polished Pasteur pipette (pre-wetted with rinse media), the tube was triturated until all cells had dissociated and no visible chunks of tissue remained. Fewer than ten triturations were typically performed. The volume was adjusted to 8-12 mL using Hibernate E containing SM1, the well was mixed and cell concentration was determined.
Plating: The cells were diluted in culture media (NbActiv4 Cell-culture media) to a final concentration of 10,000 cells/mL. The HBSS was aspirated from PDL coated plates, and 150 μL of cell solution was loaded in the middle 48 wells at 1500 cells per well. Water was loaded in the outer wells to decrease evaporation from edge wells. Cells were allowed to adhere for 2 hours in tissue culture incubator prior to treatment.
Treatment: Compounds were diluted to various concentrations to provide 6 dose response concentrations of 500 ng/mL, 250 ng/mL, 125 ng/mL, 62.5 ng/mL, 31.25 ng/mL, and 15.625 ng/mL. The plates were cultured for 48 hours, exposed to the compound at the various dose response concentrations.
Fixing the cultures: The culture medium was removed from the plates and immediately replaced with 100-200 μL of warm (37° C.) 4% paraformaldehyde (“PFA”) solution in phosphate-buffered saline (“PBS”). The cells were fixed for 15-20 minutes at room temperature, and then rinsed with PBS (200 μl/well×3).
Staining and imaging: The PBS was removed and replaced with 100 μL of blocking/permeabilization buffer (PBS, 0.2% fish gelatin, 0.03% Triton X-100, 0.02% NaN3), then incubated overnight at 4° C. To this was added 100 μL of primary antibody solution (mouse anti-Beta III tubulin in blocking buffer) and incubate overnight at 4° C. The wells were rinsed with PBS (200 μl×3), which was then removed and replaced with 100 μL of secondary antibody solution (Goat anti-mouse Alexa 488, 10 μg/ml Hoechst 33342, 0.2% fish gelatin, 0.02% azide, in PBS). The plate was shaken gently on a rotating shaker for 2 hours, then rinsed with PBS (200 μl×5).
The plate was imaged using a Cellomics ArrayScan VTI in 2 different channels for nuclear staining (Hoechst) and cell body/neurite staining (βIII-tubulin). Typically, nine fields per well were imaged with a 5× objective and automatically traced by the Neuronal Profiling Bioapplication. To get reproducible results, at least 200-300 valid neurons were measured per condition. […]

In the case of `CC(C)C[C@@H]1CN(CCCC[C@H]2CNC(CCCc3ccccc3)=N2)C(=S)N1CC1CCC(C)CC1` (stereo partly drawn) [Compound A18, (R)-4-isobutyl-3-((4-methylcyclohexyl)methyl)-1-(4-((S)-2-(3-phenylpropyl)-4,5-dihydro-1H-imidazol-4-yl)butyl)imidazolidine-2-thione], the activity at 0.015625 µg/mL stood at 145%, the activity at 0.03125 µg/mL came to 197%, the activity at 0.0625 µg/mL turned out to be 247% and the activity at 0.125 µg/mL worked out at 257%. Moreover, the activity at 0.25 µg/mL is 240%, the activity at 0.5 µg/mL worked out at 224%, the EC200 is 0.025 µM and the EC300 is 0.461 µM.

In the case of `CCC(C)C1=N[C@@H](CCCCN2C[C@@H](C)N(CC3CCC(C)CC3)C2=S)CN1` (stereo partly drawn) [Compound A7, (4R)-1-(4-((4S)-2-(sec-butyl)-4,5-dihydro-1H-imidazol-4-yl)butyl)-4-methyl-3-((4-methylcyclohexyl)methyl)imidazolidine-2-thione], the activity at 0.015625 µg/mL stood at 97%, the activity at 0.03125 µg/mL is 135%, the activity at 0.0625 µg/mL is 150% and the activity at 0.125 µg/mL came to 166%. The activity at 0.25 µg/mL turned out to be 267% and the activity at 0.5 µg/mL is 294%.

On to `CCC(C)C1=N[C@@H](CCCCN2C[C@@H](CC(C)C)N(CC3CCC(C)CC3)C2=S)CN1` (stereo partly drawn) [Compound A16, (4R)-1-(4-((4S)-2-(sec-butyl)-4,5-dihydro-1H-imidazol-4-yl)butyl)-4-isobutyl-3-((4-methylcyclohexyl)methyl)imidazolidine-2-thione], for which the activity at 0.015625 µg/mL amounted to 131%, the activity at 0.03125 µg/mL was 216%, the activity at 0.0625 µg/mL is 254% and the activity at 0.125 µg/mL is 268%. For the same compound, the activity at 0.25 µg/mL is 236%, the activity at 0.5 µg/mL came out at 264%, the EC200 is 0.01 µM and the EC300 is 0.053 µM.

Regarding `CC(C)CCCN1C(=S)N(CCCC[C@H]2CNC(CCCc3ccccc3)=N2)C[C@H]1c1ccccc1` [Compound A21, (R)-3-(4-methylpentyl)-4-phenyl-1-(4-((S)-2-(3-phenylpropyl)-4,5-dihydro-1H-imidazol-4-yl)butyl)imidazolidine-2-thione], the activity at 0.015625 µg/mL stood at 114%, the activity at 0.03125 µg/mL was determined as 170%, the activity at 0.0625 µg/mL is 172% and the activity at 0.125 µg/mL is 259%. Besides, the activity at 0.25 µg/mL came to 254% and the activity at 0.5 µg/mL amounted to 225%.
